A short description of data set [1]: Drug solubility in various carriers. Type of data set: physicochemical.
The conditions of data set [2]: cited from earlier work.

The text below walks through data of patent US20050129765A1, “Controlled release of topiramate in liquid dosage forms” (priority 2003, published 2005).

As for `CC1(C)O[C@@H]2[C@@H](CO[C@@]3(COS(N)(=O)=O)OC(C)(C)O[C@@H]23)O1` [topiramate, 2,3:4,5-di-O-isopropylidene-β-D-fructopyranose sulfamate], the solubility in carrier entry in data set [1] (20-30% topiramate in 90/10, 80/20 or 70/30 PEG 400/Cremophor EL) is “completely soluble”; in data set [1] (45% topiramate in 100% of PEG400), “completely soluble”. Besides, the “solubility (qualitative)” value in data set [2] (alkaline solutions containing sodium hydroxide or sodium phosphate, acetone, dimethylsulfoxide and ethanol) was “soluble”. Further, in data set [2] (in water), the solubility in water entry is recorded as “about 9.8 mg/ml”.
